Laboratory results as given in ChEMBL document CHEMBL5380875, “Discovery of a Potent and Oral Available Complex I OXPHOS Inhibitor That Abrogates Tumor Growth and Circumvents MEKi Resistance” (J Med Chem, 2023).
Calls of active or inactive are those of the source. The rule behind the calls is not given here.

Columns and labels:
[1] = test system: NCI-H460; test: Antiproliferative activity against human NCI-H460 cells with high-OXPHOS assessed as reduction in cell viability incubated for 5 days by CellTiter 96 cell proliferation assay; type: functional, cell-based; details: NCI-H460, 120 h
[2] = test system: NCI-H460; test: Inhibition of mitochondrial complex I NADH-ubiquinone oxidoreductase in human NCI-H460 cells assessed as reduction in NAD+/NADH ratio at 1 uM incubated for 12 hrs by WST-8 method relative to control; type: cell-based
[3] = test system: NCI-H460; test: Inhibition of mitochondrial complex I NADH-ubiquinone oxidoreductase in human NCI-H460 cells at 1 uM incubated for 12 hrs by seahorse XF96 metabolic flux analyzer relative to control; type: cell-based
[4] = test system: NCI-H460; test: Inhibition of mitochondrial complex II in human NCI-H460 cells at 1 uM incubated for 12 hrs by seahorse XF96 metabolic flux analyzer relative to control; type: cell-based
[5] = test system: NCI-H460; test: Inhibition of mitochondrial complex I NADH-ubiquinone oxidoreductase in human NCI-H460 cells assessed as reduction in NAD+/NADH ratio at 1 uM incubated for 12 hrs by WST-8 method; type: cell-based
[6] = test system: NCI-H460; test: Inhibition of mitochondrial complex I NADH-ubiquinone oxidoreductase in human NCI-H460 cells assessed as reduction in oxygen consumption rate at 1 uM incubated for 12 hrs in presence of medium supplemented with succinate by seahorse XF96 metabolic flux analyzer; type: cell-based
[7] = test system: NCI-H358; test: Antiproliferative activity against human NCI-H358 cells with low-OXPHOS assessed as reduction in cell viability incubated for 5 days by CellTiter 96 cell proliferation assay; type: functional, cell-based; details: NCI-H358, 120 h
[8] = test system: NCI-H460; test: Inhibition of mitochondrial complex I NADH-ubiquinone oxidoreductase in human NCI-H460 cells assessed as reduction in oxygen consumption rate at 1 uM incubated for 12 hrs in presence of medium supplemented with pyruvate by seahorse XF96 metabolic flux analyzer; type: cell-based
[9] = test system: NCI-H441; test: Inhibition of colony formation in human NCI-H441 cells with high-OXPHOS incubated for 7 days by crystal violet staining based analysis; type: functional, cell-based; details: dose 250-1000 nM, time 7.0 day
[10] = test system: NCI-H460; test: Inhibition of mitochondrial complex I NADH-ubiquinone oxidoreductase in human NCI-H460 cells assessed as reduction in oxygen consumption rate at 1 uM incubated for 12 hrs in presence of medium supplemented with malate by seahorse XF96 metabolic flux analyzer; type: cell-based
[11] = test system: NCI-H460; test: Inhibition of colony formation in human NCI-H460 cells with high-OXPHOS incubated for 7 days by crystal violet staining based analysis; type: functional, cell-based; details: dose 250-1000 nM, time 7.0 day
[12] = test system: NCI-H358; test: Inhibition of colony formation in human NCI-H358 cells low-OXPHOS at 250 to 1000 nM incubated for 7 days by crystal violet staining based analysis; type: functional, cell-based; details: dose 250-1000 nM, time 7.0 day
[13] = test system: NCI-H460; test: Inhibition of mitochondrial complex III in human NCI-H460 cells at 1 uM incubated for 12 hrs by seahorse XF96 metabolic flux analyzer relative to control; type: cell-based
[14] = test system: NCI-H460; test: Inhibition of mitochondrial complex IV in human NCI-H460 cells at 1 uM incubated for 12 hrs by seahorse XF96 metabolic flux analyzer relative to control; type: cell-based
[15] = test system: NCI-H441; test: Antiproliferative activity against human NCI-H441 cells with high-OXPHOS assessed as reduction in cell viability incubated for 5 days by CellTiter 96 cell proliferation assay; type: functional, cell-based; details: NCI-H441, 120 h
[16] = test system: A549; test: Cytotoxicity against human A549 cells assessed as reduction in cell viability incubated for 72 hrs by CellTiter 96 cell proliferation assay; type: functional, cell-based; details: A549, 72 h
[17] = test system: A549; test: Induction of apoptosis in human Trametinib-resistant A549 cells with high-OXPHOS harboring KRAS G12S mutant assessed as early apoptotic cells at 500 nM incubated for 72 hrs by Annexin V-FITC/propidium iodide staining based flow cytometry analysis (reference value: 4.31%); type: functional
[18] = test system: NCI-H460; test: Induction of apoptosis in human NCI-H460 cells with high-OXPHOS harboring KRAS Q61H mutant assessed as late apoptotic cells at 500 nM incubated for 72 hrs by Annexin V-FITC/propidium iodide staining based flow cytometry analysis (reference value: 5.68%); type: functional
[19] = test system: A549; test: Induction of apoptosis in human Trametinib-resistant A549 cells with high-OXPHOS harboring KRAS G12S mutant assessed as late apoptotic cells at 500 nM incubated for 72 hrs by Annexin V-FITC/propidium iodide staining based flow cytometry analysis (reference value: 4.27%); type: functional
[20] = test system: NCI-H460; test: Induction of apoptosis in human NCI-H460 cells with high-OXPHOS harboring KRAS Q61H mutant assessed as early apoptotic cells at 500 nM incubated for 72 hrs by Annexin V-FITC/propidium iodide staining based flow cytometry analysis (reference value: 1.95%); type: functional
[21] = test system: A549; test: Cytotoxicity against human Trametinib-resistant A549 cells assessed as reduction in cell viability incubated for 72 hrs by CellTiter 96 cell proliferation assay; type: functional, cell-based; details: A549, 72 h

`Cc1c(C(=O)N2CCN(Cc3ccc(OCC(F)(F)F)cc3)CC2)nnn1Cc1ccc(C(=O)Nc2cccc(C(F)(F)F)c2)nc1` gave an IC50 [1] of 257 nM, an inhibition [2] of 39.1% and an inhibition [3] of 41.2%. The inhibition [4] was 1.2%, the inhibition [5] was “Active” and the inhibition [6] was “inactive”. The IC50 [7] was greater than 10000 nM, the inhibition [8] was “Active” and the inhibition [9] was “Dose-Dependent Effect”. For the same compound, the inhibition [10] was “Active”, the inhibition [11] was “Dose-Dependent Effect” and the inhibition [12] was “inactive”. The inhibition [13] was 14%, the inhibition [14] was -0.1% and the IC50 [15] was 169 nM.

In the case of `Cc1c(C(=O)N2CCN(C(=O)c3ccc(OC(F)(F)F)cc3)CC2)nnn1Cc1ccc(C(=O)Nc2ccc(C(F)(F)F)cc2)nc1`, the inhibition [3] is reported as 43.8%.

In the case of `Cc1c(C(=O)N2CCN(Cc3ccccc3OCC(F)(F)F)CC2)nnn1Cc1ccc(C(=O)Nc2ccc(C(F)(F)F)cc2)nc1`, the inhibition [3] is reported as 6.7%.

`CC(=O)Nc1cccc(-n2c(=O)n(C3CC3)c(=O)c3c(Nc4ccc(I)cc4F)n(C)c(=O)c(C)c32)c1` [TRAMETINIB] gave an IC50 [16] of 296 nM, an Activity [17] of 6.94% and an Activity [18] of 8.3%. For the same compound, the Activity [19] was 15.6%, the Activity [20] was 2.51% and the IC50 [21] was 38100 nM.

`Cc1c(C(=O)N2CCN(Cc3ccc(OCC(F)(F)F)cc3)CC2)nnn1Cc1ccc(C(=O)NCC(C)C)nc1` gave an inhibition [3] of 5.6%.

`Cc1c(C(=O)N2CCN(Cc3ccc(OCC(F)(F)F)cc3)CC2)nnn1Cc1ccc(C(=O)Nc2ccc(Br)cc2)nc1` gave an IC50 [1] of 5.5 nM, an inhibition [2] of 62.6% and an inhibition [3] of 66%. The inhibition [4] was 22.5%, the IC50 [7] was 450 nM and the inhibition [13] was 33.7%. It also gave an inhibition [14] of 20%.

For `Cc1nnn(Cc2ccc(C(=O)Nc3ccc(C(F)(F)F)cc3)nc2)c1C(=O)N1CCN(Cc2ccc(OCC(F)(F)F)cc2)CC1`, the inhibition [3] was 15.7%.

`O=C(Nc1ccc(C(F)(F)F)cc1)c1ccc(Cn2nnc(C(=O)N3CCN(Cc4ccc(OCC(F)(F)F)cc4)CC3)c2C(F)(F)F)cn1` was tested, and the IC50 [1] was 3.8 nM, the inhibition [2] was 85.1% and the inhibition [3] was 59.3%. It also gave an inhibition [4] of 4.7%, an IC50 [7] of 605 nM and an inhibition [13] of 12.1%. It also gave an inhibition [14] of 1.6%.

For `Cc1c(C(=O)N2CCN(Cc3ccc(OCC(F)(F)F)cc3)CC2)nnn1Cc1ccc(C(=O)Nc2ccccc2C(F)(F)F)nc1`, the inhibition [3] was 36.3%.

`O=C(Nc1ccc(C(F)(F)F)cc1)c1ccc(Cn2nnc(C(=O)N3CCN(Cc4ccc(OCC(F)(F)F)cc4)CC3)c2-c2ccccc2)cn1` showed an inhibition [3] of 12.6%.

Compound `CCc1c(C(=O)N2CCN(Cc3ccc(OCC(F)(F)F)cc3)CC2)nnn1Cc1ccc(C(=O)Nc2ccc(C(F)(F)F)cc2)nc1` has an inhibition [3] of 42.6%.

Compound `Cc1c(C(=O)N2CCN(Cc3ccccc3)CC2)nnn1Cc1ccc(C(=O)Nc2ccc(C(F)(F)F)cc2)nc1` has an inhibition [3] of 10.4%.

In the case of `Cc1c(C(=O)N2CCN(Cc3ccc(OCC(F)(F)F)cc3)CC2)nnn1Cc1ccc(C(=O)Nc2ccc(Cl)cc2)nc1`, the IC50 [1] is reported as 7.6 nM, the inhibition [2] is reported as 72.5% and the inhibition [3] is reported as 60.1%. The inhibition [4] was 13.5%, the IC50 [7] was greater than 1000 nM and the inhibition [13] was 30.3%. It also gave an inhibition [14] of 26%.

`Cc1c(C(=O)N2CCN(Cc3ccc(OCC(F)(F)F)cc3)CC2)nnn1Cc1ccc(C(=O)NC2CCOCC2)nc1` was tested, and the inhibition [3] was 10.5%.

`Cc1c(C(=O)N2CCN(S(C)(=O)=O)CC2)nnn1Cc1ccc(C(=O)Nc2ccc(C(F)(F)F)cc2)nc1` showed an inhibition [3] of 20.4%.

`Cc1ccc(CN2CCN(C(=O)c3nnn(Cc4ccc(C(=O)Nc5ccc(C(F)(F)F)cc5)nc4)c3C)CC2)cc1` showed an inhibition [3] of 38.1%.

`O=C(Nc1ccc(C(F)(F)F)cc1)c1ccc(Cn2cc(C(=O)N3CCN(Cc4ccc(OCC(F)(F)F)cc4)CC3)nn2)cn1` was tested, and the IC50 [1] was 10.6 nM, the inhibition [2] was 65.7% and the inhibition [3] was 52%. For the same compound, the inhibition [4] was 7.4%, the IC50 [7] was 588 nM and the inhibition [13] was 26%. It also gave an inhibition [14] of -2%.

With `Cc1nnn(Cc2ccc(C(=O)Nc3ccc(F)cc3)nc2)c1C(=O)N1CCN(Cc2ccc(OCC(F)(F)F)cc2)CC1` the inhibition [3] was 9%.

`Cc1c(C(=O)N2CCN(Cc3ccc(OCC(F)(F)F)cc3)CC2)nnn1Cc1ccc(C(=O)Nc2ccc3ccccc3c2)nc1` showed an IC50 [1] of 25.6 nM, an inhibition [2] of 57.9% and an inhibition [3] of 52.3%. It also gave an inhibition [4] of 7%, an IC50 [7] greater than 1000 nM and an inhibition [13] of 11%. For the same compound, the inhibition [14] was 3.9%.

`Cc1c(C(=O)N2CCN(Cc3cccc(OCC(F)(F)F)c3)CC2)nnn1Cc1ccc(C(=O)Nc2ccc(C(F)(F)F)cc2)nc1` showed an inhibition [3] of 49.9%.

For `COc1ccc(NC(=O)c2ccc(Cn3nnc(C(=O)N4CCN(Cc5ccc(OCC(F)(F)F)cc5)CC4)c3C)cn2)cc1`, the inhibition [3] was 49.2%.

With `CCN1CCN(C(=O)c2nnn(Cc3ccc(C(=O)Nc4ccc(C(F)(F)F)cc4)nc3)c2C)CC1` the inhibition [3] was -4.1%.

With `Cc1c(C(=O)N2CCN(Cc3ccc(C(C)(C)C)cc3)CC2)nnn1Cc1ccc(C(=O)Nc2ccc(C(F)(F)F)cc2)nc1` the IC50 [1] was 7.8 nM, the inhibition [2] was 73.2% and the inhibition [3] was 50.5%. For the same compound, the inhibition [4] was -0.9%, the IC50 [7] was greater than 1000 nM and the inhibition [13] was 17.8%. For the same compound, the inhibition [14] was 12.2%.

`Cc1nnn(Cc2ccc(C(=O)Nc3ccc(OC(F)(F)F)cc3)nc2)c1C(=O)N1CCN(Cc2ccc(OCC(F)(F)F)cc2)CC1` was tested, and the inhibition [3] was 20.4%.

`CCNC(=O)c1ccc(Cn2nnc(C(=O)N3CCN(Cc4ccc(OCC(F)(F)F)cc4)CC3)c2C)cn1` showed an inhibition [3] of 36.3%.

Work on `Cc1c(C(=O)N2CCN(Cc3ccc(OCC(F)(F)F)cc3)CC2)nnn1Cc1ccc(C(=O)Nc2ccc(C(C)(C)C)cc2)nc1` yielded an inhibition [3] of 45%.

Work on `Cc1c(C(=O)N2CCN(Cc3ccc(Cl)cc3)CC2)nnn1Cc1ccc(C(=O)Nc2ccc(C(F)(F)F)cc2)nc1` yielded an inhibition [3] of 20.4%, an inhibition [4] of 6.8% and an inhibition [13] of 3.5%. It also gave an inhibition [14] of 8.9%.

For `Cc1c(C(=O)N2CCN(Cc3ccc(C(C)C)cc3)CC2)nnn1Cc1ccc(C(=O)Nc2ccc(C(F)(F)F)cc2)nc1`, the inhibition [3] was 36.7%.

Work on `Cc1c(C(=O)N2CCN(C)CC2)nnn1Cc1ccc(C(=O)Nc2ccc(C(F)(F)F)cc2)nc1` yielded an inhibition [3] of 11.5% and an inhibition [4] of -1.2%.

`Cc1ccc(NC(=O)c2ccc(Cn3nnc(C(=O)N4CCN(Cc5ccc(OCC(F)(F)F)cc5)CC4)c3C)cn2)cc1` gave an inhibition [3] of 47.9%.

`Cc1nnn(Cc2ccc(C(=O)Nc3ccc(Br)cc3)nc2)c1C(=O)N1CCN(Cc2ccc(OCC(F)(F)F)cc2)CC1` showed an inhibition [3] of 7.7%.

For `Cc1c(C(=O)N2CCN(Cc3ccc(OC(F)(F)F)cc3)CC2)nnn1Cc1ccc(C(=O)Nc2ccc(C(F)(F)F)cc2)nc1`, the inhibition [3] was 50.5%.

`Cc1c(C(=O)N2CCN(Cc3ccc(OCC(F)(F)F)cc3)CC2)nnn1Cc1ccc(C(=O)Nc2ccc(OC(F)(F)F)cc2)nc1` showed an IC50 [1] of 6.3 nM, an inhibition [2] of 74.2% and an inhibition [3] of 58.4%. For the same compound, the inhibition [4] was 8.8%, the IC50 [7] was 856 nM and the inhibition [13] was 9%. For the same compound, the inhibition [14] was -6.7%.

Compound `Cc1c(C(=O)N2CCN(Cc3ccc(OCC(F)(F)F)cc3)CC2)nnn1Cc1ccc(C(=O)Nc2ccc(F)cc2)nc1` has an IC50 [1] of 11.7 nM, an inhibition [2] of 72.5% and an inhibition [3] of 54.2%. It also gave an inhibition [4] of 9.4%, an IC50 [7] greater than 1000 nM and an inhibition [13] of 2.6%. For the same compound, the inhibition [14] was 26.6%.
